Patent publication US7553838B2, “Mitotic kinesin inhibitors” (Merck & Co. Inc., priority 2004, dated 2009)
pIC50: −log10 of the molar value.

Biological target: T1, human poly-histidine tagged KSP motor domain (KSP(367H)) (Homo sapiens, UniProt P52732)
T1 construct: were used to amplify the motor domain and the neck linker region; made in house; host or cells: E. coli BL21 (DE3), pRSETa
T1 sequence (P52732 18-359 limits assumed): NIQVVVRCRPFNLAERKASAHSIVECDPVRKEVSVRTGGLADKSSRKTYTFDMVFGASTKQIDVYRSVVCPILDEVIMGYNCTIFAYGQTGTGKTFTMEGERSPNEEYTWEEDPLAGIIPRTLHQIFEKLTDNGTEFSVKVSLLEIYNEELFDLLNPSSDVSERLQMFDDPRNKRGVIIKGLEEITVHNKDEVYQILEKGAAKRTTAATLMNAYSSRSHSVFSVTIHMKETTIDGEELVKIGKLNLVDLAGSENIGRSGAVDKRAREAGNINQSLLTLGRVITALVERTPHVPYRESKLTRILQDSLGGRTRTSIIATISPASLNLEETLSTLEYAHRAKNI
Experiment: Kinesin ATPase In Vitro Assay
Assay type: biochemical
Details: microtubules, 1 mM ATP, 23° C.; free phosphate by quinaldine red/ammonium molybdate
Description: I. Kinesin ATPase In Vitro Assay
Cloning and expression of human poly-histidine tagged KSP motor domain (KSP(367H))
Plasmids for the expression of the human KSP motor domain construct were cloned by PCR using a pBluescript full length human KSP construct (Blangy et al., Cell, vol. 83, pp 1159-1169, 1995) as a template. The N-terminal primer 5′-[…] (SEQ.ID.NO.: 1) and the C-terminal primer 5′-[…] […] (SEQ.ID.NO.: 2) were used to amplify the motor domain and the neck linker region. The PCR products were digested with AseI and XhoI, ligated into the NdeI/XhoI digestion product of pRSETa (Invitrogen) and transformed into E. coli BL21 (DE3).
Cells were grown at 37° C. to an OD600 of 0.5. […]
The kinesin motor domain is incubated with microtubules, 1 mM ATP (1:1 MgCl2: Na-ATP), and compound at 23° C. in buffer containing 80 mM K-HEPES (pH 7.0), 1 mM EGTA, 1 mM DTT, 1 mM MgCl2, and 50 mM KCl. […] Free phosphate from the ATP hydrolysis reaction is measured via a quinaldine red/ammonium molybdate assay by adding 150 μl of quench C buffer containing a 2:1 ratio of quench A:quench B. Quench A contains 0.1 mg/ml quinaldine red and 0.14% polyvinyl alcohol; quench B contains 12.3 mM ammonium molybdate tetrahydrate in 1.15 M sulfuric acid. The reaction is incubated for 10 minutes at 23° C., and the absorbance of the phospho-molybdate complex is measured at 540 nm.

SMILES: CC(C(=O)N1N=C(c2cc(F)ccc2F)CC1(CO)c1ccccc1)N1CCN(C)CC1 (racemic) [Compound 3-4, {3-(2,5-difluorophenyl)-1-[2-(4-methylpiperazin-1-yl)propanoyl]-5-phenyl-4,5-dihydro-1H-pyrazol-5-yl}methanol]
- pIC50: ≥ 4.30
